Data: US7265130B2, “NPY Y5 antagonist” (Shionogi & Co., Ltd., priority 1999, dated 2007)

Legend:
[1] = biological target: T1, human NPY Y5 receptor (Homo sapiens, UniProt Q15761); test: cAMP production inhibitory activity in CHO cells; format: cell-based; conditions: against 50 nM NPY inhibition of forskolin stimulated cAMP, CHO cells expressing human NPY Y5 receptor
T1 construct: expressed in transfected cells
T1 sequence (Q15761 1-445): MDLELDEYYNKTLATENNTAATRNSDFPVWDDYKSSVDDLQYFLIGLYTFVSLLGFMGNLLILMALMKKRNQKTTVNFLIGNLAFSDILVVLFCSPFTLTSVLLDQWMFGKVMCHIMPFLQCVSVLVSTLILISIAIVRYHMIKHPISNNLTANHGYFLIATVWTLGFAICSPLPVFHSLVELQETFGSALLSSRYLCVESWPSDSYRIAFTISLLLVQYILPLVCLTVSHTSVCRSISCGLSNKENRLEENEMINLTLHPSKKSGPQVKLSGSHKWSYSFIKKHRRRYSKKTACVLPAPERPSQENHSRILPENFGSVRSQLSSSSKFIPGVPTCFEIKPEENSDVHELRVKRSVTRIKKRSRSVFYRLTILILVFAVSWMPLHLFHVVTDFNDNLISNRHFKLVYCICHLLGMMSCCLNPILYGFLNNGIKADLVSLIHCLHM
Protocol: Experiment 2 cAMP production inhibitory activity in CHO cells
After CHO cells expressing human NPY Y5 receptor were incubated in the presence of 2.5 mM isobutylmethylxanthine (SIGMA) at 37° C. for 20 min., the compound of the present invention was added and incubated for 5 min. Then, 50 nM NPY and 10 μM forskolin (SIGMA) were added to the cells and incubated for 30 min. After the reaction was terminated by adding 1N HCl, the amount of cAMP in the supernatant was measured with EIA kit (Amersham LIFE SCIENCE).

[2] = biological target: T1, human NPY Y5 receptor; test: Affinity for NPY Y5 receptor ([125I] peptide YY binding, CHO cell membranes); conditions: inhibition of specific [125I] peptide YY binding, membranes of CHO cells expressing NPY Y5 receptor
Text: Experiment 1 Affinity for NPY Y5 Receptor
cDNA sequence encoding a human NPY Y5 receptor (WO096/16542) was cloned in the expression vector pME18S (Takebe et al. Mol. Cell. Biol. 8, 8957). The obtained expression vector was transfected into a host CHO cells by using a Lipofect AMINE reagent (Trademark, Gibco BRL Co., Ltd.) according to an instruction protocol to obtain the cells that stably express NPY Y5 receptor.
The membranes prepared from the above CHO cells expressing NPY Y5 receptor, the compound of the present invention and 30,000 cpm [^125I] peptide YY (60 pM of final concentration: Amersham) were incubated in the assay buffer (20 mM HEPES-Hanks buffer containing 0.1% bovine serum albumin, pH 7.4) at 25° C. for 2 hours, and then the mixture was filtered with a glassfilter GF/C treated with polyethyleneimine. After the glassfilter was washed with 50 mM Tris-HCl buffer (pH 7.4), the radioactivity on the filter was measured with a gamma counter. The non-specific binding was detected in the presence of 200 nM of peptide YY. The 50% inhibitory concentration of the test compound against the specific peptide YY binding (IC50 value) was calculated (Inui, A. et al. Endocrinology 131, 2090-2096 (1992)).

| IC50 [1] | IC50 [2] | SMILES |
| --- | --- | --- |
| 2.7 nM | 0.47 nM | CCCc1ccc(NC(=O)C2CCC(NS(=O)(=O)C(C)(C)C)CC2)cc1 (centres unmarked) [Ia-10] |
| 7.2 nM | 0.64 nM | CC(C)c1ccc(NC(=O)C2CCC(NS(=O)(=O)C(C)(C)C)CC2)cc1 (centres unmarked) [Ia-11] |
| 3.3 nM | 1.5 nM | CC(C)(C)c1ccc(NC(=O)C2CCC(NS(=O)(=O)C(C)(C)C)CC2)cc1 (centres unmarked) [Ia-13] |
| 28 nM | 4.8 nM | CC(C)(C)S(=O)(=O)NC1CCC(C(=O)Nc2ccc(Cl)cc2)CC1 (centres unmarked) [Ia-14] |
| 74 nM | 5.2 nM | CC(C)(C)S(=O)(=O)NC1CCC(C(=O)Nc2ccc(F)c(F)c2F)CC1 (centres unmarked) [Ia-24] |
| 18 nM | 1.1 nM | C[C@@H]1CN(c2ccc(NC(=O)C3CCC(NS(=O)(=O)C(C)(C)C)CC3)cc2Cl)C[C@H](C)O1 (some centres unmarked) [Ia-25] |
| 86 nM | 1.6 nM | COc1ccc(NC(=O)C2CCC(NS(=O)(=O)C(C)(C)C)CC2)cc1F (centres unmarked) [Ia-36] |
| 2.2 nM | 1 nM | C[C@@H]1C[C@@H](C)CN(c2ccc(NC(=O)C3CCC(NS(=O)(=O)C(C)(C)C)CC3)cc2)C1 (some centres unmarked) [Ia-38] |
| 9 nM | 2.5 nM | CC(C)(C)S(=O)(=O)NC1CCC(C(=O)Nc2cccc(Cl)c2)CC1 (centres unmarked) [Ia-41] |
| 20 nM | 3.6 nM | C[C@@H]1CN(c2ccc(NC(=O)C3CCC(NS(=O)(=O)C(C)(C)C)CC3)cc2)C[C@@H](C)O1 (some centres unmarked) [Ia-42] |
| 27 nM | 4.8 nM | C[C@@H]1CN(S(=O)(=O)c2ccc(NC(=O)C3CCC(NS(=O)(=O)C(C)(C)C)CC3)cc2)C[C@H](C)O1 (some centres unmarked) [Ia-44] |
| 42 nM | 4.8 nM | CCOCCN(CCOCC)c1ccc(NC(=O)C2CCC(NS(=O)(=O)C(C)(C)C)CC2)cc1 (centres unmarked) [Ia-45] |
| 8.3 nM | 0.87 nM | Cc1ccc2nc(-c3ccc(NC(=O)C4CCC(NS(=O)(=O)C(C)(C)C)CC4)cc3)sc2c1 (centres unmarked) [Ia-46] |
| 3.8 nM | 0.82 nM | CC(C)[C@@H]1CN(c2ccc(NC(=O)C3CCC(NS(=O)(=O)C(C)(C)C)CC3)cc2)CCO1 (some centres unmarked) [Ia-47] |
| 6.1 nM | 1.2 nM | CCC1(CC)CN(c2ccc(NC(=O)C3CCC(NS(=O)(=O)C(C)(C)C)CC3)cc2)CCO1 (centres unmarked) [Ia-48] |
| 83 nM | 2.6 nM | CC(C)S(=O)(=O)NC1CCC(C(=O)Nc2ccc(N3C[C@@H](C)O[C@@H](C)C3)c(F)c2)CC1 (some centres unmarked) [Ia-49] |
| 22 nM | 1.9 nM | CC(C)(C)S(=O)(=O)NC1CCC(C(=O)Nc2ccc(N3CCC(=O)CC3)cc2)CC1 (centres unmarked) [Ia-52] |
| 8.1 nM | 0.22 nM | CC(C)(C)S(=O)(=O)NC1CCC(C(=O)Nc2ccc(C(=O)c3ccccc3)cc2)CC1 (centres unmarked) [Ia-53] |
| 27 nM | 1.1 nM | C[C@@H]1CN(S(=O)(=O)c2cccc(NC(=O)C3CCC(NS(=O)(=O)C(C)(C)C)CC3)c2)C[C@H](C)O1 (some centres unmarked) [Ia-55] |
| 96 nM | 2.3 nM | CC(C)(O)c1ccc(NC(=O)C2CCC(NS(=O)(=O)C(C)(C)C)CC2)cc1 (centres unmarked) [Ia-56] |
| 31 nM | 0.93 nM | CC(O)(c1ccccc1)c1ccc(NC(=O)C2CCC(NS(=O)(=O)C(C)(C)C)CC2)cc1 (centres unmarked) [Ia-57] |
| 110 nM | 2.5 nM | CC(C)(C)S(=O)(=O)Nc1ccc(NC(=O)C2CCC(NS(=O)(=O)C(C)(C)C)CC2)cc1 (centres unmarked) [Ia-58] |
| 16 nM | 0.71 nM | CC(C)(C)S(=O)(=O)NC1CCC(C(=O)Nc2cnc(-c3ccccc3)cn2)CC1 (centres unmarked) [Ia-59] |
| 10 nM | 0.95 nM | CC(=O)c1cc2cc(NC(=O)C3CCC(NS(=O)(=O)C(C)(C)C)CC3)ccc2oc1=O (centres unmarked) [Ia-60] |
| 19 nM | 0.68 nM | CN1C(=O)c2ccc(NC(=O)C3CCC(NS(=O)(=O)C(C)(C)C)CC3)cc2C1=O (centres unmarked) [Ia-61] |
| 370 nM | 3.9 nM | CC(C)(C)S(=O)(=O)NC1CCC(C(=O)Nc2ccc(NS(C)(=O)=O)cc2)CC1 (centres unmarked) [Ia-63] |
| 96 nM | 7.1 nM | CC(C)(C)S(=O)(=O)NC1CCC(C(=O)Nc2ccc(NS(=O)(=O)c3ccccc3)cc2)CC1 (centres unmarked) [Ia-64] |
| 11 nM | 1.1 nM | CC(C)(C)S(=O)(=O)NC1CCC(C(=O)Nc2ccc(N3CCC(O)(c4ccc(Cl)cc4)CC3)cc2)CC1 (centres unmarked) [Ia-65] |

| IC50 [1] | IC50 [2] | SMILES |
| --- | --- | --- |
| 3.2 nM | 0.59 nM | CC(C)(C)S(=O)(=O)NC1CCC(C(=O)Nc2nnc(-c3ccccc3)s2)CC1 (centres unmarked) [Ia-66] |
| 180 nM | 9.5 nM | CC(C)(C)S(=O)(=O)NC1CCN(C(=O)Nc2ccc3oc(=O)ccc3c2)CC1 [Ia-68] |
| 33 nM | 2.7 nM | Cn1nnnc1-c1ccc(NC(=O)[C@H]2CC[C@H](NS(=O)(=O)C(C)(C)C)CC2)cc1 [Ia-69] |
| 31 nM | 1.5 nM | CC(C)(C)S(=O)(=O)NC1CCN(C(=O)Nc2cnc(-c3ccccc3)cn2)CC1 [Ia-70] |
| 12 nM | 1.3 nM | CC(C)(C)S(=O)(=O)N[C@H]1CC[C@H](C(=O)Nc2ccc(-c3nnnn3-c3ccccc3)cc2)CC1 [Ia-71] |
| 150 nM | 2 nM | CC(C)(C)S(=O)(=O)NCCCCC(=O)Nc1ccc2oc(=O)ccc2c1 [Ia-78] |
| 3 nM | 0.44 nM | CC(C)S(=O)(=O)N[C@H]1CC[C@H](C(=O)Nc2ccc3c(c2)C(=O)N(c2ccccc2)C3=O)CC1 [Ia-80] |
| 4.5 nM | 2.7 nM | CC(C)(C)S(=O)(=O)NCCCCC(=O)Nc1ccc2c(c1)C(=O)N(c1ccccc1)C2=O [Ia-81] |
| 53 nM | 1.2 nM | C[C@@H]1CN(c2ccc(NC(=O)CCCCNS(=O)(=O)C(C)(C)C)c(F)c2)C[C@H](C)O1 [Ia-83] |
| 13 nM | 0.25 nM | CC(C)S(=O)(=O)NC1CCC(C(=O)Nc2ccc(N3CCC(O)(c4ccc(Cl)cc4)CC3)cc2)CC1 (centres unmarked) [Ia-84] |
| 14 nM | 0.22 nM | CC(C)(C)S(=O)(=O)NCCCCC(=O)Nc1ccc(N2CCC(O)(c3ccc(Cl)cc3)CC2)cc1 [Ia-85] |
| 11 nM | 0.73 nM | CC(C)S(=O)(=O)NCCCCC(=O)Nc1ccc(N2CCC(O)(c3ccc(Cl)cc3)CC2)cc1 [Ia-86] |
| 61 nM | 0.49 nM | CC(C)S(=O)(=O)NC1CCC(C(=O)Nc2ccc3c(c2)C(=O)N(C)C3=O)CC1 (centres unmarked) [Ia-87] |
| 48 nM | 0.62 nM | CC(C)S(=O)(=O)NC1CCC(C(=O)Nc2ccc3c(c2)OCO3)CC1 (centres unmarked) [Ia-88] |
| 150 nM | 4 nM | CN1C(=O)c2ccc(NC(=O)CCCCNS(=O)(=O)C(C)(C)C)cc2C1=O [Ia-91] |
| 24 nM | 1.9 nM | CC(C)(C)S(=O)(=O)NC1CCC(C(=O)Nc2ccc3scnc3c2)CC1 (centres unmarked) [Ia-106] |
| 1.3 nM | 0.14 nM | CC(C)(C)S(=O)(=O)NC1CCC(C(=O)Nc2ccc(-c3ccccc3)cc2)CC1 (centres unmarked) [Ia-107] |
| 3.9 nM | 0.6 nM | CC(C)(C)S(=O)(=O)NC1CCC(C(=O)Nc2cccc3c2Cc2ccccc2-3)CC1 (centres unmarked) [Ia-109] |
| 1.1 nM | 0.3 nM | CC(C)(C)S(=O)(=O)NC1CCC(C(=O)Nc2ccc(N3CC=CC3)cc2)CC1 (centres unmarked) [Ia-110] |
| 28 nM | 5.1 nM | CC(C)(C)S(=O)(=O)NC1CCC(C(=O)Nc2cccc3c2CCCC3)CC1 (centres unmarked) [Ia-111] |
| 46 nM | 4.1 nM | CC(C)(C)S(=O)(=O)Nc1ccc(C(=O)Nc2ccc3c(c2)CCC3)cc1 [Ia-125] |
| 160 nM | 6.1 nM | CC(C)(C)S(=O)(=O)Nc1ccc(C(=O)Nc2ccc3c(c2)OCCO3)cc1 [Ia-127] |
| 26 nM | 1.3 nM | CC(C)(C)S(=O)(=O)NC1CCC(C(=O)Nc2cccc(C(F)(F)F)c2)CC1 (centres unmarked) [Ia-129] |
| 3 nM | 0.21 nM | CC(C)(C)S(=O)(=O)NC1CCC(C(=O)Nc2ccc3ccsc3c2)CC1 (centres unmarked) [Ia-130] |
| 17 nM | 1.3 nM | CC(C)(C)S(=O)(=O)Nc1ccc(C(=O)Nc2ccc3ccsc3c2)cc1 [Ia-131] |
| 76 nM | 2.8 nM | CC(C)NC(=O)c1cccc(NC(=O)c2ccc(NS(=O)(=O)C(C)(C)C)cc2)c1 [Ia-132] |
| 8.8 nM | 1.7 nM | CC(C)(C)S(=O)(=O)Nc1ccc(C(=O)Nc2ccc3sccc3c2)cc1 [Ia-133] |
